Laboratory results reported in ChEMBL document CHEMBL4184271, “Design, synthesis, anti-inflammatory activity and molecular docking of potential novel antipyrine and pyrazolone analogs as cyclooxygenase enzyme (COX) inhibitors” (Bioorg Med Chem Lett, 2018).

How the values were obtained:
[1] = biological target: T1, Prostaglandin G/H synthase 1 (Ovis aries, UniProt P05979); assay: Inhibition of ovine COX1 using arachidonic acid as substrate preincubated for 10 mins followed by substrate addition measured after 5 mins by ELISA
T1 sequence (P05979 whole entry): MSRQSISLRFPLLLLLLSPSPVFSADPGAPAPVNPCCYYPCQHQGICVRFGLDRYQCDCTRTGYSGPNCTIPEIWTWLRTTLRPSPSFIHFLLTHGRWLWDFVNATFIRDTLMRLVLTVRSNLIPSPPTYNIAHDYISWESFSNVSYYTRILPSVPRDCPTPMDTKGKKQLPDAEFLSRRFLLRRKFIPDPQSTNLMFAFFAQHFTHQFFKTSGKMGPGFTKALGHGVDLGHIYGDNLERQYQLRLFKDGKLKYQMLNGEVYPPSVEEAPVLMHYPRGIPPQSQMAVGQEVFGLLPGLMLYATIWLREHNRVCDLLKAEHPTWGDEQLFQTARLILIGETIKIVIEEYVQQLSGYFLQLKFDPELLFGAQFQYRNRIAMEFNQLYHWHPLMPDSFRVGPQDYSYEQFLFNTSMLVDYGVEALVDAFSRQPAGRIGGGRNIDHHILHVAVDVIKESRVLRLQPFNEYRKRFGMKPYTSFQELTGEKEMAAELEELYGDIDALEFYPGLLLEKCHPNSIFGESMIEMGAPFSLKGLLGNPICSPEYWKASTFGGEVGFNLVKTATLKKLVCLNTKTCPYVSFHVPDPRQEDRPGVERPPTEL

[2] = biological target: T2, Prostaglandin G/H synthase 1 (Ovis aries) (UniProt P05979); assay: Inhibition of ovine COX1 at 5 uM using arachidonic acid as substrate preincubated for 10 mins followed by substrate addition measured after 5 mins by ELISA relative to control
T2 sequence (whole entry): T1 sequence (P05979 whole entry)

Ovis aries = species: Ovis aries; assay: Selectivity ratio of compound effect for inhibition of ovine COX2 to compound effect for inhibition of ovine COX1
Rattus norvegicus = assay: Anti-inflammatory activity in Sprague-Dawley rat assessed as inhibition of carrageenan-induced edema in hind paw administered ip measured after 4 to 6 hrs relative to control; assay type: functional

IC50 [1] [nM] | inhibition [2] [%] | Selectivity ratio (Ovis aries) | SMILES | inhibition (INH) (Rattus norvegicus) [%]
> 5000 | 73.4 | 1.05 | Cc1c(CN2CCN(CCO)CC2)c(=O)n(-c2ccccc2)n1C | 48.2
> 5000 | 58.8 | 1.01 | CC1=NN(c2ccccc2)C(=O)C1C(Nc1c(C)n(C)n(-c2ccccc2)c1=O)c1c(C)n(C)n(-c2ccccc2)c1=O (stereo not given) | 39.4
1160 | 87.4 | 0.87 | CC1=NN(c2ccccc2)C(=O)C1C(c1c(C)c(=O)n(-c2ccccc2)n1C)N1CCN(C(c2c(C)c(=O)n(-c3ccccc3)n2C)C2C(=O)N(c3ccccc3)N=C2C)CC1 (stereo not given) | 49.5
1330 | 78 | 0.95 | CC1=NN(c2ccccc2)C(=O)C1C(c1c(C)n(C)n(-c2ccccc2)c1=O)N1CCCCC1 (stereo not given) | 40.5
> 5000 | 69.1 | 0.79 | Cc1nn(-c2ccccc2)c(O)c1C(c1c(-c2ccccc2)[nH]c2ccccc12)c1c(C)c(=O)n(-c2ccccc2)n1C (stereo not given) | 35.9
2520 | 84.2 | 0.82 | CC1=NN(c2ccccc2)C(=O)C1C(Nc1c(C)n(C)n(-c2ccccc2)c1=O)c1ccc2c(c1)OCO2 (stereo not given) | 48.3
> 5000 | 42.9 | 1.2 | CC1=NN(c2ccccc2)C(=O)C1C(c1ccc2c(c1)OCO2)N1CCN(C(c2ccc3c(c2)OCO3)C2C(=O)N(c3ccccc3)N=C2C)CC1 (stereo not given) | 21.1
1460 | 81.3 | 0.48 | Cc1c(C(CCCC(c2c(C)n(C)n(-c3ccccc3)c2=O)c2c(C)n(C)n(-c3ccccc3)c2=O)c2c(C)n(-c3ccccc3)n(C)c2=O)c(=O)n(-c2ccccc2)n1C (stereo not given) | 75
 |  |  | Cc1ccc(-c2cc(C(F)(F)F)nn2-c2ccc(S(N)(=O)=O)cc2)cc1 [CELECOXIB] | 89
22200 | 25 | 0.67 | CC1=NN(c2ccccc2)C(=O)/C1=C\c1ccc2c(c1)OCO2 | 20.3
> 5000 | 87 | 0.87 | CC1=NN(c2ccccc2)C(=O)/C1=C\c1c(C)n(C)n(-c2ccccc2)c1=O | 49.1
1230 | 88.5 | 0.78 | Cc1c(CN2CCC(CCCC3CCN(Cc4c(C)n(C)n(-c5ccccc5)c4=O)CC3)CC2)c(=O)n(-c2ccccc2)n1C | 85.4
